Source: US12162858B2, “Quinoline derivatives as inhibitors of AXL/MER RTK and CSF1R” (QURIENT CO., LTD., priority 2018, dated 2024)
pKd: −log10 of the molar value.

Key:
Axl = biological target: T1, Axl (Homo sapiens, UniProt P30530); assay: LanthaScreen Eu kinase binding assay for Axl; conditions: read-out: Axl kinase binding activity (Kd)
T1 sequence (P30530 26-894): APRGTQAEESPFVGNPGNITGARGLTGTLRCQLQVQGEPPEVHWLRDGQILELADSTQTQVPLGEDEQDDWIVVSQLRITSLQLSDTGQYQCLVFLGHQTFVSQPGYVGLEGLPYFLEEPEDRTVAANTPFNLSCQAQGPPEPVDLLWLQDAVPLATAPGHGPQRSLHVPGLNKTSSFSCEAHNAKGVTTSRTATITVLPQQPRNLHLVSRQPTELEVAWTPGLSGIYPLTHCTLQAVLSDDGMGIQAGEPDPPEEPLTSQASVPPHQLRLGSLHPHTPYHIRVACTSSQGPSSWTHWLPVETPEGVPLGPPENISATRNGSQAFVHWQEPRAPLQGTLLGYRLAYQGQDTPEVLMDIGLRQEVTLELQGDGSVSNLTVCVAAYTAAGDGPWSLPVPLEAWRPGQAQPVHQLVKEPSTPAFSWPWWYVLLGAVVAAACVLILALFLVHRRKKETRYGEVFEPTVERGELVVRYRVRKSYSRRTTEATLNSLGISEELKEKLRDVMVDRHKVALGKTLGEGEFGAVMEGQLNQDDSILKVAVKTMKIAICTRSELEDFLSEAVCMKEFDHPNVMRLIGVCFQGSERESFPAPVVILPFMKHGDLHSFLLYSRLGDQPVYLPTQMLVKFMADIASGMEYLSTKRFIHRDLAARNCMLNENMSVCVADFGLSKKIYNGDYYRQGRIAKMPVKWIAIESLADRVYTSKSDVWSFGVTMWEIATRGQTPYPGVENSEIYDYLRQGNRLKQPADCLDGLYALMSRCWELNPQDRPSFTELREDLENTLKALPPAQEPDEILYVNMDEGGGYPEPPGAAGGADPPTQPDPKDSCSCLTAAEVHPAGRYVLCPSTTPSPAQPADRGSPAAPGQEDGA
Summary of the method: (§1)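 Kd values come from control-normalized FRET loss, referenced to DMSO vehicle wells, after 1 h at room temperature. Each compound was serially diluted over eight steps in DMSO and competed against Tracer 236 (Alexa Fluor 647) for the kinase, which was tagged by a Eu anti-GST antibody.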

Mer = biological target: T2, Mer (Homo sapiens, UniProt Q12866); assay: LanthaScreen Eu kinase binding assay for Mer; conditions: read-out: Mer kinase binding activity (Kd)
T2 construct: purchased Life Technologies
T2 sequence (Q12866 21-999): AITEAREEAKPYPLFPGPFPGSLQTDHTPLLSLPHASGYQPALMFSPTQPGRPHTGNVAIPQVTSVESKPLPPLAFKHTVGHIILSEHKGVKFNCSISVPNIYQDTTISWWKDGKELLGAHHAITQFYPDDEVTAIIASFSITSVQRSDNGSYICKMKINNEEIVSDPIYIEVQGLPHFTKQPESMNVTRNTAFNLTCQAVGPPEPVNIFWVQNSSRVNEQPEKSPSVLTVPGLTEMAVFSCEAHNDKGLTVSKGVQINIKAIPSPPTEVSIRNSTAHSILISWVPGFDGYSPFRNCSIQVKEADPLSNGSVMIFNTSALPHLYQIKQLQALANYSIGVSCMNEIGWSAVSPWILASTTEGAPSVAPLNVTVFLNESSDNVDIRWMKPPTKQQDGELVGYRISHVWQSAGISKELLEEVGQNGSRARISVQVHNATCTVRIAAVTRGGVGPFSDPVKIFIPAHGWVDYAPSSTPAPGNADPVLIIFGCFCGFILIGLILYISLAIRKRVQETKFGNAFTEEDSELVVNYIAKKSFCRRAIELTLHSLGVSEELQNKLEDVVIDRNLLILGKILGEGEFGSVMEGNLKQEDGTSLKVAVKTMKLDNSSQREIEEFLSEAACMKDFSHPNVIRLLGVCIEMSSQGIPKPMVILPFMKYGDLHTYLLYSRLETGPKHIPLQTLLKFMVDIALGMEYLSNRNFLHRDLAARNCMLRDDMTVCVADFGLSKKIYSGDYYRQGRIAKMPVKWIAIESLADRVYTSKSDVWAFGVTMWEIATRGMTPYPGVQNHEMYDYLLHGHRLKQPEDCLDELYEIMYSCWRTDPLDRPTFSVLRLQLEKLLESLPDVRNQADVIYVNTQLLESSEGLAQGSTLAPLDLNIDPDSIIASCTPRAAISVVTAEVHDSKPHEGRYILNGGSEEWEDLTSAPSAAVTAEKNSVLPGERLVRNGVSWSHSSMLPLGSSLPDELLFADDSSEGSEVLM
Summary of the method: as §1

Row | SMILES | pKd (Axl) | pKd (Mer)
1 | COc1cc2nccc(Oc3ccc(NC(=O)c4nn(CC(C)O)cc4OCC4CN(C)C4)nc3)c2cc1OC (centres unmarked) [Compound 174] | ≤ 6.30 | ≤ 6.30
2 | COc1cc2nccc(Oc3ccc(NC(=O)c4nn(C5CC5)cc4OCCC(F)(F)F)nn3)c2cc1OC [Compound 173] | > 7.00 | > 7.00
3 | CCn1nc(C(=O)Nc2ccc(Oc3ccnc4cc(OC)c(OC)cc34)cn2)c(OCC(F)(F)F)c1C [Compound 1] | > 7.00 | > 7.00
4 | COc1cc2nccc(Oc3ccc(NC(=O)c4nn(C5CCCCC5)cc4OCC(F)(F)F)nc3)c2cc1OC [Compound 69] | > 7.00 | > 7.00
5 | COc1cc2nccc(Oc3ccc(NC(=O)c4nn(C5CCNC5)cc4OCC(F)(F)F)nc3)c2cc1OC (centres unmarked) [Compound 70] | > 7.00 | > 7.00
6 | CCCn1cc(OCC(F)(F)F)c(C(=O)Nc2ccc(Oc3ccnc4cc(OC)c(OC)cc34)cc2F)n1 [Compound 28] | > 7.00 | > 7.00
7 | COc1cc2nccc(Oc3ccc(NC(=O)c4sc(C5CC5)cc4OCC(F)(F)F)nc3)c2cc1OC [Compound 179] | 6.30 to 7.00 | 6.30 to 7.00
8 | CCCn1cc(OCCN(C)C)c(C(=O)Nc2ccc(Oc3ccnc4cc(OC)c(OC)cc34)cn2)n1 [Compound 177] | > 7.00 | 6.30 to 7.00
9 | COc1cc2nccc(Oc3ccc(NC(=O)c4nn(CCN)cc4OCC(F)(F)F)c(F)c3)c2cc1OC [Compound 75] | 6.30 to 7.00 | 6.30 to 7.00
10 | COc1cc2nccc(Oc3ccc(NC(=O)c4nn(CC(C)=O)cc4OCC(F)(F)F)nc3)c2cc1OC [Compound 19] | > 7.00 | > 7.00
11 | COc1cc2nccc(Oc3ccc(NC(=O)c4nn(C5COC5)cc4OCC(F)(F)F)nc3)c2cc1OC [Compound 66] | > 7.00 | > 7.00
12 | COc1cc2nccc(Oc3ccc(NC(=O)c4nn(C(C)(C)C)cc4OCC(F)(F)F)nc3)c2cc1OC [Compound 22] | > 7.00 | > 7.00
13 | COc1cc2nccc(Oc3ccc(NC(=O)c4nn(CCC#N)cc4OCC(F)(F)F)nc3)c2cc1OC [Compound 39] | > 7.00 | > 7.00
14 | COc1cc2nccc(Oc3ccc(NC(=O)c4nn(CC(C)C)cc4OCC(F)(F)F)nc3)c2cc1OC [Compound 21] | > 7.00 | > 7.00
15 | COc1cc2nccc(Oc3ccc(NC(=O)c4nn(C5CC5)cc4OCCC(F)(F)F)nc3)c2cc1OC [Compound 170] | > 7.00 | > 7.00
16 | CCCn1cc(NCC(F)(F)F)c(C(=O)Nc2ccc(Oc3ccnc4cc(OC)c(OC)cc34)cn2)n1 [Compound 23] | > 7.00 | > 7.00
17 | COc1cc2nccc(Oc3ccc(NC(=O)c4nn(C5CCCC5)cc4OCC(F)(F)F)c(F)c3)c2cc1OC [Compound 47] | > 7.00 | > 7.00
18 | COc1cc2nccc(Oc3ccc(NC(=O)c4nn(CC5CCCCC5)cc4OCC(F)(F)F)nc3)c2cc1OC [Compound 43] | > 7.00 | > 7.00
19 | COc1cc2nccc(Oc3ccc(NC(=O)c4nn(C)cc4OCC(F)(F)F)cc3F)c2cc1OC [Compound 50] | > 7.00 | > 7.00

Row | SMILES | pKd (Axl) | pKd (Mer)
20 | COc1cc2nccc(Oc3ccc(NC(=O)c4nn(CC(C)O)cc4OCC(F)(F)F)c(F)c3)c2cc1OC (centres unmarked) [Compound 76] | > 7.00 | > 7.00
21 | COc1cc2nccc(Oc3ccc(NC(=O)c4nn(CC(C)N)cc4OCC(F)(F)F)nc3)c2cc1OC (centres unmarked) [Compound 63] | > 7.00 | > 7.00
22 | COc1cc2nccc(Oc3ccc(NC(=O)c4nn(CC5CCN(C)C5)cc4OCC(F)(F)F)nc3)c2cc1OC (centres unmarked) [Compound 169] | > 7.00 | > 7.00
23 | COc1cc2nccc(Oc3ccc(NC(=O)c4nn(CC5CCC5)cc4OCC(F)(F)F)nc3)c2cc1OC [Compound 42] | > 7.00 | > 7.00
24 | COc1cc2nccc(Oc3ccc(NC(=O)c4nn(C5CCCC5)cc4OCC(F)(F)F)cc3F)c2cc1OC [Compound 52] | > 7.00 | > 7.00
25 | CCCn1cc(OCC(F)(F)F)c(C(=O)Nc2ccc(Oc3ccnc4cc(OC)c(OC)cc34)cc2C)n1 [Compound 27] | > 7.00 | > 7.00
26 | COCCOc1cn(C2CC2)nc1C(=O)Nc1ccc(Oc2ccnc3cc(OC)c(OC)cc23)nn1 [Compound 171] | > 7.00 | 6.30 to 7.00
27 | COc1cc2nccc(Oc3ccc(NC(=O)c4nn(C5CC5)cc4OCC4CNC4)nn3)c2cc1OC [Compound 172] | ≤ 6.30 | ≤ 6.30
28 | COc1cc2nccc(Oc3ccc(NC(=O)c4nn(C)cc4OCC(F)(F)F)nc3)c2cc1OC [Compound 33] | > 7.00 | > 7.00
29 | COc1cc2nccc(Oc3ccc(NC(=O)c4nn(CCCN)cc4OCC(F)(F)F)nc3)c2cc1OC [Compound 68] | > 7.00 | > 7.00
30 | COc1cc2nccc(Oc3ccc(NC(=O)c4nn(CC5CNC5)cc4OCC(F)(F)F)nc3)c2cc1OC [Compound 73] | 6.30 to 7.00 | 6.30 to 7.00
31 | COc1cc2nccc(Oc3ccc(NC(=O)c4nn(CC(C)C)cc4OCC(F)(F)F)c(F)c3)c2cc1OC [Compound 48] | > 7.00 | > 7.00
32 | COc1cc2nccc(Oc3ccc(NC(=O)c4nn(C5CCOC5)cc4OCC(F)(F)F)cc3)c2cc1OC (centres unmarked) [Compound 62] | > 7.00 | > 7.00
33 | COc1cc2nccc(Oc3ccc(NC(=O)c4nn(C(C)C)c(C)c4OCC(F)(F)F)nc3)c2cc1OC [Compound 2] | > 7.00 | > 7.00
34 | CCC(=O)n1cc(OCC(F)(F)F)c(C(=O)Nc2ccc(Oc3ccnc4cc(OC)c(OC)cc34)cn2)n1 [Compound 20] | > 7.00 | > 7.00
35 | CCCCn1cc(OCC(F)(F)F)c(C(=O)Nc2ccc(Oc3ccnc4cc(OC)c(OC)cc34)cn2)n1 [Compound 36] | > 7.00 | > 7.00
36 | COc1cc2nccc(Oc3ccc(NC(=O)c4nn(C[C@H](C)O)cc4OCC(F)(F)F)nc3)c2cc1OC [Compound 30] | > 7.00 | > 7.00
37 | COc1cc2nccc(Oc3ccc(NC(=O)c4nn(CCO)cc4OCC(F)(F)F)cc3F)c2cc1OC [Compound 51] | > 7.00 | > 7.00
